Test results reported in patent US20230303552A1, “ARYLSULFONYL DERIVATIVES AND THEIR USE AS MUSCARINIC ACETYLCHOLINE RECEPTOR M5 INHIBITORS” (Vanderbilt University, priority 2020, published 2023).

Molecular target: T1, human M5 receptors (hM5) (Homo sapiens, UniProt P08912)
T1 construct: expressed in transfected cells
T1 sequence (P08912 1-532): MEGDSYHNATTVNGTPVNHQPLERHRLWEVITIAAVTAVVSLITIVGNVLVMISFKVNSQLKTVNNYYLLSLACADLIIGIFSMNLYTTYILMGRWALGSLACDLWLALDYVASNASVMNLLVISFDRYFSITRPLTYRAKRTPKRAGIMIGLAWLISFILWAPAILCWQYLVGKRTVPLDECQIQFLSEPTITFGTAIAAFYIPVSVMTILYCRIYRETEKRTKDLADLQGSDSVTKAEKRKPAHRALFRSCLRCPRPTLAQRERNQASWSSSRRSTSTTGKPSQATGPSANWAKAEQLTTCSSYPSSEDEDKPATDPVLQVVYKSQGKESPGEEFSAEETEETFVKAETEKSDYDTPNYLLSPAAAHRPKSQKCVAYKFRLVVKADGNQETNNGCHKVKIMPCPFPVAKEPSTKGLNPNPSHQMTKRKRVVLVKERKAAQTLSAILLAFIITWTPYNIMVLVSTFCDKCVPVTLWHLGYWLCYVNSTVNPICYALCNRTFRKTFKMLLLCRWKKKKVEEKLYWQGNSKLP
Experiment: Cell-based functional calcium mobilization assay of mAChR M5 activity (inhibition of EC80 acetylcholine response) in CHO cells
Conditions: CHO cells stably expressing hM5; for IC50: calcium flux (Fluo-4), EC80 acetylcholine addition; for EC80 MIN: minimum of EC80 acetylcholine response, normalized to maximum acetylcholine response
How it was run: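 CHO cells stably expressing human M5, loaded with Fluo-4 AM in HBSS/20 mM HEPES/2.5 mM probenecid pH 7.4. Compound added 140 s before acetylcholine EC20, then EC80 added 125 s later. Calcium flux normalized to maximal acetylcholine response; IC50 from ten-point curves in the EC80 window.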

SMILES	IC50 [µM]	EC80 MIN [%]
[2H]C1([2H])Oc2ccc(S(=O)(=O)N3C[C@@H](C)[C@@H](C(=O)Nc4ccc5scnc5c4)C3)cc2C1([2H])[2H] [Compound 148, (3R,4S)-N-(benzo[d]thiazol-5-yl)-1-((2,3-dihydrobenzofuran-5-yl-2,2,3,3-d4)sulfonyl)-4-methylpyrrolidine-3-carboxamide]	0.03	3
Cc1noc2ncc(S(=O)(=O)N3CC[C@@H](C(=O)Nc4ccc5scnc5c4)C3)cc12 [Compound 149, (R)-N-(benzuo[d]thiazo1-5-yl)-1-((3-methylisoxazolo[5,4-b]pyridin-5-yl)sulfonyl)pyrrolidine-3-carboxamide]	> 10	36
O=C(Nc1ccc2scnc2c1)[C@@H]1CCN(S(=O)(=O)c2ccc3c(c2)CCC3)C1 [Compound 150, (R)-N-(benzo[d]thiazol-5-yl)-1-((2,3-dihydro-1H-inden-5-yl)sulfonyl)pyrrolidine-3-carboxamide]	> 10	–
Cc1noc(C)c1S(=O)(=O)N1CC[C@@H](C(=O)Nc2ccc3scnc3c2)C1 [Compound 151, (R)-N-(benzo[d]thiazo1-5-yl)-1-((3,5-dimethylisoxazol-4-yl)sulfonyl)pyrrolidine-3-carboxamide]	3.84	5
O=C(Nc1ccc2scnc2c1)[C@@H]1CCN(S(=O)(=O)c2ccc3ncccc3c2)C1 [Compound 152, (R)-N-(benzo[d]thiazol-5-yl)-1-(quinolin-6-ylsulfonyl)pyrrolidine-3-carboxamide]	0.352	3
COc1ccc(S(=O)(=O)N2CC[C@@H](C(=O)Nc3ccc4scnc4c3)C2)c(C)c1 [Compound 153, (R)-N-(benzo[d]thiazo1-5-yl)-1-((4-methoxy-2-methylphenyl)sulfonyl)pyrr olidine-3-carboxarnide]	1.47	3
O=C(Nc1ccc2scnc2c1)[C@@H]1CCN(S(=O)(=O)c2ccc3c(c2)OCO3)C1 [Compound 154, (R)-1-(benzo[d][1,3]dioxol-5-yisulfonyl)-N-(benzo[d]thiazol-5-yl)pyrrolidine-3-carboxamide]	0.35	3
O=C(Nc1ccc2scnc2c1)C1CCN(S(=O)(=O)c2ccccc2-c2ccno2)CC1 [Compound 155, N-(benzo[d]thiazol-5-yl)-1-((2-(isoxazol-5-yl)phenyl)sulfonyl)piperidine-4-carboxamide]	> 10	54
O=C(Nc1ccc2scnc2c1)C1CCN(S(=O)(=O)c2ccccc2F)CC1 [Compound 156, N-(benzo[d]thiazol-5-yl)-1-((2-fluorophcnyl)sulfonyl)piper idine-4-carboxaniide]	> 10	6
Cn1cc(S(=O)(=O)N2CCC(C(=O)Nc3ccc4scnc4c3)CC2)c(C(F)(F)F)n1 [Compound 157, N-(benzo[d]thiazol-5-yl)-1-((1-methyl-3-(trifluoromethyl)-1H-pyrazo1-4-yl)sulfonyl)piperidine-4-carboxamide]	2.34	4
